For 53 compounds, IC50 results are on record in patent US9073892B2, “Indazolyl triazol derivatives” (Merck Serono S.A., priority 2010, dated 2015).

Structures can show the parent of a compound that is named as a salt.

This experiment relates to T1, IRAK1/4 human.
T1 construct: fused on or other part: His tag and TEV cleavage site at the N-terminus
Kind of experiment: IRAK1/4 phosphorylation IC50 (enzymatic assay, table 2). It is filed as biochemical. To be noted: human IRAK1/4 phosphorylation. The gist of the method: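 In 384-well plates, reactions in 50 mM Hepes pH7.0 buffer with MgCl2, DTT, EGTA and BSA combined ATP, compounds in DMSO at 20 µM to 1 nM, and either His-TEV-tagged human IRAK-1 or His-TEV-tagged human IRAK-4 plus STK1-biotin peptide. They ran for 2 or 3 hours alongside 2% DMSO controls. Each value is an IC50 for inhibition.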
`OC1CNCCC1c1ccc(-n2cc(-c3n[nH]c4ccccc34)nn2)cc1` (centres unmarked) [Example 137, 4-{4-[4-(1H-indazol-3-yl)-1H-1,2,3-triazol-1-yl]phenyl}piperidin-3-ol hydrochloride] yielded an IC50 of 100 to 1000 nM.
For `CC(C)=Cc1ccc2[nH]nc(-c3cn(-c4ccc(C(=O)N5CCC(N(C)C)CC5)cc4)nn3)c2c1` [Example 138, N,N-dimethyl-1-(4-{4-[5-(2-methylprop-1-en-1-yl)-1H-indazol-3-yl]-1H-1,2,3-triazol-1-yl}benzoyl)piperidin-4-amine] the value was 100 to 1000 nM.
For the compound `CC(C)Cc1ccc2[nH]nc(-c3cn(-c4ccc(C(=O)N5CCC(N(C)C)CC5)cc4)nn3)c2c1` [Example 139, 1-{4-[4(5-isobutyl-1H-indazol-3-yl)-1H-1,2,3-triazol-1-yl]benzoyl}-N,N-dimethylpiperidin-4-amine], the IC50 lay in the range of 100 to 1000 nM.
For `CN1C2CCC1CC(n1cc(-n3cc(-c4n[nH]c5ccccc45)nn3)cn1)C2` (centres unmarked) [Example 140, 3-{1-[1-(8-methyl-8-azabicyclo[3.2.1]oct-3-yl)-1H-pyrazol-4-yl]-1H-1,2,3-triazol-4-yl}-1H-indazole] the value was under 100 nM; for `COC(=O)c1ccc2[nH]nc(-c3cn(-c4ccc(CN5CCOCC5)cc4)nn3)c2c1` [Example 142, methyl 3-{1-[4-(morpholin-4-ylmethyl)phenyl]-1H-1,2,3-triazol-4-yl}-1H-indazole-5-carboxylate], 100 to 1000 nM; for `CN1CCC(NC(=O)c2ccc3[nH]nc(-c4cn(-c5ccc(CN6CCOCC6)cc5)nn4)c3c2)CC1` [Example 143, N-(1-methylpiperidin-4-yl)-3-{1-[4-(morpholin-4-ylmethyl)phenyl]-1H-1,2,3-triazol-4-yl}-1H-indazole-5-carboxamide], 100 to 1000 nM.
For `O=C(c1ccc(-n2cc(-c3n[nH]c4ccc(Cn5nc(-c6ccc(O)cc6)ccc5=O)cc34)nn2)cc1)N1CCOCC1` [Example 144, 6-(4-hydroxyphenyl)-2-[(3-{1-[4-(morpholin-4-ylcarbonyl)phenyl]-1H-1,2,3-triazol-4-yl}-1H-indazol-5-yl)methyl]pyridazin-3(2H)-one] the value was under 100 nM; for `O=C(c1ccc(-n2cc(-c3n[nH]c4cc(C#CCO)ccc34)nn2)cc1)N1CCOCC1` [Example 146, 3-(3-{1-[4-(morpholin-4-ylcarbonyl)phenyl]-1H-1,2,3-triazol-4-yl}-1H-indazol-6-yl)prop-2-yn-1-ol], 100 to 1000 nM.
For `O=C(c1ccc(-n2cc(-c3n[nH]c4cc(CCCO)ccc34)nn2)cc1)N1CCOCC1` [Example 147, 3-(3-{1-[4-(morpholin-ylcarbonyl)phenyl]-1H-1,2,3-triazol-4-yl}-1H-indazol-6-yl)propan-1-ol] the value was 100 to 1000 nM.
As to `CN1CCCC(Nc2ccc3[nH]nc(-c4cn(-c5ccc(C(=O)N6CCOCC6)cc5)nn4)c3c2)C1` (centres unmarked) [Example 148, N-(1-methylpiperidin-3-yl)-3-{1-[4-(morpholin-4-ylcarbonyl)phenyl]-1H-1,2,3-triazol-4-yl}-1H-indazol-5-amine], the IC50 was under 100 nM.
For `CN(C)C1CCN(c2ccc3[nH]nc(-c4cn(-c5ccc(C(=O)N6CCOCC6)cc5)nn4)c3c2)C1` (centres unmarked) [Example 149, N,N-dimethyl-1-(3-{1-[4-(morpholin-4-ylcarbonyl)phenyl]-1H-1,2,3-triazol-4-yl}-1H-indazol-5-yl)pyrrolidin-3-amine] the value was under 100 nM.
In the case of `OC(c1ccc(-n2cc(-c3n[nH]c4ccccc34)nn2)cc1)C(F)(F)F` (centres unmarked) [Example 150, 2,2,2-trifluoro-1-{4-[4-(1H-indazol-3-yl)-1H-1,2,3-triazol-1-yl]phenyl}ethanol] it was 100 to 1000 nM; in that of `O=C(c1ccc(-n2cc(-c3n[nH]c4ccc(OCCCO)cc34)nn2)cc1)N1CCOCC1` [Example 153, 3-[(3-{1-[4-(morpholin-4-ylcarbonyl)phenyl]-1H-1,2,3-triazol-4-yl}-1H-indazol-5-yl)oxy]propan-1-ol], 100 to 1000 nM; in that of `O=C1C[C@H](OCc2ccc3[nH]nc(-c4cn(-c5ccc(C(=O)N6CCOCC6)cc5)nn4)c3c2)CO1` [Example 154, (4S)-4-[(3-{1-[4-(morpholin-4-ylcarbonyl)phenyl]-1H-1,2,3-triazol-4-yl}-1H-indazol-5-yl)methoxy]dihydrofuran-2(3H)-one], 100 to 1000 nM.
In the case of `O=C(c1ccc(-n2cc(-c3n[nH]c4ccccc34)nn2)cn1)N1CCOCC1` [Example 155] it was 100 to 1000 nM.
Compound `O=C(c1ccc(-n2cc(-c3n[nH]c4ccc(C(F)(F)F)cc34)nn2)cc1)N1CCOCC1` [Example 156] registered an IC50 of 100 to 1000 nM.
For `O=C(c1ccc(-n2cc(-c3n[nH]c4ccc(F)cc34)nn2)cc1)N1CCOCC1` [Example 157] the value was 100 to 1000 nM; for `CN(C)C1CCN(C(=O)c2ccc(-n3cc(-c4n[nH]c5ccc(C(F)(F)F)cc45)nn3)cc2)CC1` [Example 159], 100 to 1000 nM; for `CC1CN(C(=O)c2ccc(-n3cc(-c4n[nH]c5ccccc45)nn3)cc2)CCO1` (centres unmarked) [Example 160], 100 to 1000 nM.
In the case of `O=C(c1ccc(-n2cc(-c3n[nH]c4ccccc34)nn2)cc1)N1CCOC(CO)C1` (centres unmarked) [Example 161] it was 100 to 1000 nM.
For `CC1(C)CN(C(=O)c2ccc(-n3cc(-c4n[nH]c5ccccc45)nn3)cc2)CCO1` [Example 162] the value was 100 to 1000 nM.
`CN1CCCC2(CCCN(C(=O)c3ccc(-n4cc(-c5n[nH]c6ccccc56)nn4)cc3)C2)C1=O` (centres unmarked) [Example 163] yielded an IC50 of 100 to 1000 nM.
For `CCOCC1CCCN(C(=O)c2ccc(-n3cc(-c4n[nH]c5ccccc45)nn3)cc2)C1` (centres unmarked) [Example 164] the value was 100 to 1000 nM; for `O=C(c1ccc(-n2cc(-c3n[nH]c4ccccc34)nn2)cc1)N1CCCC2(COC2)C1` [Example 165], 100 to 1000 nM; for `O=C(c1ccc(-n2cc(-c3n[nH]c4ccccc34)nn2)cc1)N1CCN2CCCC2C1` (centres unmarked) [Example 166], 100 to 1000 nM.
`O=C(c1ccc(-n2cc(-c3n[nH]c4ccccc34)nn2)cc1)N1CCOC(CCO)C1` (centres unmarked) [Example 167] had an IC50 of 100 to 1000 nM.
For `COCCC1CN(C(=O)c2ccc(-n3cc(-c4n[nH]c5ccccc45)nn3)cc2)CCO1` (centres unmarked) [Example 168] the value was 100 to 1000 nM; for `O=C(Nc1cnn(C2CCNC2)c1)c1ccc(-n2cc(-c3n[nH]c4ccccc34)nn2)cc1` (centres unmarked) [Example 169], 100 to 1000 nM.
`O=C(c1ccc(-n2cc(-c3n[nH]c4ccccc34)nn2)cc1)N1CC2(COC2)C1` [Example 170]: the IC50 was in the range of 100 to 1000 nM.
In the case of `CN(C(=O)c1ccc(-n2cc(-c3n[nH]c4ccccc34)nn2)cc1)C1CCOCC1` [Example 171] it was 100 to 1000 nM.
`CN(C)C1CCN(C(=O)c2ccc(-n3cc(-c4n[nH]c5ccc(C6=CCCC6)cc45)nn3)cc2)CC1` [Example 172]: the IC50 lay in the range of 100 to 1000 nM.
In the case of `CN(C)C1CCN(C(=O)c2ccc(-n3cc(-c4n[nH]c5ccc(C6=CCOCC6)cc45)nn3)cc2)CC1` [Example 173] it was 100 to 1000 nM; in that of `CN(C)C1CCN(C(=O)c2ccc(-n3cc(-c4n[nH]c5ccc(C6=CCCCC6)cc45)nn3)cc2)CC1` [Example 174], 100 to 1000 nM.
In the case of `Cc1cccc2[nH]nc(-c3cn(-c4ccc(C(=O)N5CCOCC5)cc4)nn3)c12` [Example 175] it was 1000 to 5000 nM.
For `O=C(Nc1cnn(CCc2ccncc2)c1)c1ccc(-n2cc(-c3n[nH]c4ccccc34)nn2)cc1` [Example 176] the value was 100 to 1000 nM; for `O=C(c1ccc(-n2cc(-c3n[nH]c4ccc(Cn5nc(-c6cccnc6)ccc5=O)cc34)nn2)cc1)N1CCOCC1` [Example 177], under 100 nM.
In the case of `CN(C)C1CCN(C(=O)c2ccc(-n3cc(-c4n[nH]c5ccc(C6CCOCC6)cc45)nn3)cc2)CC1` [Example 178], the concentration for half-maximal inhibition (IC50) was in the range of 100 to 1000 nM.
In the case of `CN(C)C1CCN(C(=O)c2ccc(-n3cc(-c4n[nH]c5ccc(C6CCCCC6)cc45)nn3)cc2)CC1` [Example 179] it was 100 to 1000 nM.
For `c1ccc2c(-c3cn(-c4cnn(CCN5CCOCC5)c4)nn3)n[nH]c2c1` [Example 180] the value was 100 to 1000 nM; for `COc1cnccc1-c1ccc2[nH]nc(-c3cn(-c4ccc(C(=O)N5CCOCC5)cc4)nn3)c2c1` [Example 181], 100 to 1000 nM.
In the case of `O=C(c1ccc(-n2cc(-c3n[nH]c4cccc(F)c34)nn2)cc1)N1CCOCC1` [Example 182] it was 1000 to 5000 nM; in that of `CN(C)C1CCN(C(=O)c2ccc(-n3cc(-c4n[nH]c5ccc(C6CCCC6)cc45)nn3)cc2)CC1` [Example 183], 100 to 1000 nM.
As to `Cc1ccc2c(-c3cn(-c4ccc(C(=O)N5CCOCC5)cc4)nn3)n[nH]c2c1` [Example 184], the concentration for half-maximal inhibition (IC50) was under 100 nM.
In the case of `O=C(c1ccc(-n2cc(-c3n[nH]c4cc(Cl)ccc34)nn2)cc1)N1CCOCC1` [Example 185] it was 100 to 1000 nM; in that of `CN1CCC(n2cc(-n3cc(-c4n[nH]c5ccccc45)nn3)cn2)CC1` [Example 186], under 100 nM.
As for `OCc1ccc(-n2cc(-c3n[nH]c4ccccc34)nn2)cc1` [Example 187], the IC50 fell in the range of 100 to 1000 nM.
In the case of `COc1cc2[nH]nc(-c3cn(-c4ccc(C(=O)N5CCOCC5)cc4)nn3)c2cc1OC` [Example 189] it was 100 to 1000 nM; in that of `O=C(c1ccc(-n2cc(-c3n[nH]c4ccc(Cn5nc(-c6ccc(O)c(F)c6)ccc5=O)cc34)nn2)cc1)N1CCOCC1` [Example 190], under 100 nM; in that of `O=C(c1ccc(-n2cc(-c3n[nH]c4ccc(O)cc34)nn2)cc1)N1CCOCC1` [Example 192], under 100 nM.
In the case of `O=C(c1ccc(-n2cc(-c3n[nH]c4ccc(Cl)cc34)nn2)cc1)N1CCOCC1` [Example 193] it was 100 to 1000 nM.
In the case of `O=C(c1ccc(-n2cc(-c3n[nH]c4cc(F)ccc34)nn2)cc1)N1CCOCC1` [Example 194] it was 100 to 1000 nM; in that of `COc1ccc2c(-c3cn(-c4ccc(C(=O)N5CCOCC5)cc4)nn3)n[nH]c2c1` [Example 195], 100 to 1000 nM.
`O=c1ccc(-c2ccncc2)nn1Cc1ccc2[nH]nc(-c3cn(-c4ccc(CN5CCOCC5)cc4)nn3)c2c1` [Example 196] displayed an IC50 of under 100 nM.
